Experimental data published in US20240174611A1 (Rappta Therapeutics Oy, priority 2021, published 2024).

These molecules were tested on LNCaP cells (assay: LNCaP cell viability assay (MTS)). Settings: Homo sapiens, LNCaP, 48 h, LNCaP cell line, 48 hours treatment.
Format: cell-based
Experimental: LNCaP cell line was used for the cell viability assay. LNCaP cells were plated in 96-well plates at a density of 5000 cells per well. After 24 hours of plating, the cells were treated with increasing doses of compound 1-100 ranging from 1 μM to 80 μM. Relative cell numbers were analyzed after 48 hours using 3-(4,5-dimethylthiazol-2-yl)-5-(3-carboxymethoxyphenyl)-2-(4-sulfophenyl)-2H-tetrazolium (MTS) assay (Promega) according to the manufacturer's instructions.
The cell viability data was analyzed with GraphPad Prism software. The values were log transformed and analyzed with non-linear regression (curve-fit) using log(inhibitor) vs. response—variable slope (four parameters) and constraining the bottom to equal zero. Unless otherwise indicated, the GI50 values provided in Table 35 correspond to the LNCaP cell viability assays.

GI50 | SMILES
40.4 µM | COC(=O)[C@@H]1Cc2ccccc2[C@@H]1NS(=O)(=O)c1ccc(OC(F)(F)F)cc1 (racemic) [Compound 4]
51.5 µM | CN1CC[C@@H](NS(=O)(=O)c2ccc(OC(F)(F)F)cc2)[C@@H]1c1ccc(Cl)cc1 (racemic) [Compound 9]
16 µM | CC(C)(C)OC(=O)N1CCC([C@@H]2C[C@H]2NS(=O)(=O)c2ccc(OC(F)(F)F)cc2)CC1 (racemic) [Compound 24]
45 µM | CC(C)C1N(Cc2ccccc2)CC12C[C@@H](O)[C@H](NS(=O)(=O)c1ccc(OC(F)(F)F)cc1)C2 (mixture of isomers) [Compound 31]
67.2 µM | O=S(=O)(N[C@@H]1C[C@H]1c1ccc(Cl)cc1)c1ccc(OC(F)(F)F)cc1 (racemic) [Compound 42, rac N-((1R,2S)-2-(4-chlorophenyl)cyclopropyl)-4-(trifluoromethoxy)benzenesulfonamide]
55.8 µM | O=S(=O)(N[C@@]1(c2ccc(Cl)cc2)CNC[C@@H]1F)c1ccc(OC(F)(F)F)cc1 (racemic) [Compound 79, N-((3S,4S)-3-(4-chlorophenyl)-4-fluoropyrrolidin-3-yl)-4-(trifluoromethoxy)benzenesulfonamide]
16 µM | CC(C)(C)N1CCC(NS(=O)(=O)c2ccc(OC(F)(F)F)cc2)C1c1ccc(Cl)c(F)c1 (single isomer, unassigned; enantiomer 1) [Compound 37, trans N-(1-(tert-butyl)-2-(4-chloro-3-fluorophenyl)pyrrolidin-3-yl)-4-(trifluoromethoxy)benzene-sulfonamide enantiomer 1]
38.1 µM | CC(=O)Nc1ccc(S(=O)(=O)N2CCC(NS(=O)(=O)c3ccc(OC(F)(F)F)cc3)CC2)cc1 [Compound 1]
77.1 µM | O=S(=O)(NC1CCN(c2cccc(Br)c2)C1)c1ccc(OC(F)(F)F)cc1 (stereo not shown) [Compound 3]
52.8 µM | O=S(=O)(NC1CCCN(c2ccc(Cl)c(Cl)c2)C1)c1ccc(OC(F)(F)F)cc1 (stereo not shown) [Compound 5, N-(1-(3,4-dichlorophenyl)piperidin-3-yl)-4-(trifluoromethoxy)benzene-sulfonamide]
44.2 µM | O=S(=O)(NC1CCc2c(Cl)cc(Cl)cc21)c1ccc(OC(F)(F)F)cc1 (stereo not shown) [Compound 11, N-(4,6-dichloro-2,3-dihydro-1H-inden-1-yl)-4-(trifluoromethoxy)benzene-sulfonamide]
34.4 µM | O=C1C(NS(=O)(=O)c2ccc(OC(F)(F)F)cc2)CCCN1Cc1cccc(C(F)(F)F)c1 (stereo not shown) [Compound 16]
37.4 µM | O=S(=O)(NC1CC2(CCCC2)Oc2ccccc21)c1ccc(OC(F)(F)F)cc1 (stereo not shown) [Compound 18, N-(spiro[chromane-2,1′-cyclopentan]-4-yl)-4-(trifluoromethoxy)benzene-sulfonamide]
60 µM | CCOC(=O)C1(NS(=O)(=O)c2ccc(OC(F)(F)F)cc2)CCc2ccccc21 (stereo not shown) [Compound 20]
70 µM | O=S(=O)(NC1CCC2CN(Cc3ccccc3)CC21)c1ccc(OC(F)(F)F)cc1 (stereo not shown) [Compound 22]
30 µM | O=C1CCC(NS(=O)(=O)c2ccc(OC(F)(F)F)cc2)c2ccc(OC(F)F)cc21 (stereo not shown) [Compound 25, N-(6-(difluoromethoxy)-4-oxo-1,2,3,4-tetrahydronaphthalen-1-yl)-4-(trifluoromethoxy)benzene-sulfonamide]
53 µM | O=S(=O)(NC1Cc2[nH]ncc2C(C(F)(F)F)C1)c1ccc(OC(F)(F)F)cc1 (stereo not shown) [Compound 26]
12 µM | CC1(C)C[C@H](NS(=O)(=O)c2ccc(OC(F)(F)F)cc2)c2cc(F)ccc2O1 [Compound 27, (S)-N-(6-fluoro-2,2-dimethylchroman-4-yl)-4-(trifluoromethoxy)benzene-sulfonamide]
53 µM | Cc1noc(C)c1S(=O)(=O)NCC1(NS(=O)(=O)c2ccc(OC(F)(F)F)cc2)CCCCC1 [Compound 33]
10.4 µM | O=S(=O)(NC1(c2ccc(Cl)c(Cl)c2)CCNC1)c1ccc(OC(F)(F)F)cc1 (stereo not shown) [Compound 41, N-(3-(3,4-dichlorophenyl)pyrrolidin-3-yl)-4-(trifluoromethoxy)benzene-sulfonamide]

Continued, molecule first:

SMILES | GI50
O=S(=O)(N[C@@H]1CCN(C2CC2)[C@H]1c1ccc(F)c(F)c1)c1ccc(OC(F)(F)F)cc1 (racemic) [Compound 34] | 33 µM
O=S(=O)(N[C@@H]1CNC[C@@H]1c1ccc(Cl)c(Cl)c1)c1ccc(OC(F)(F)F)cc1 (racemic) [Compound 51, rac N-((3R,4R)-4-(3,4-dichlorophenyl)pyrrolidin-3-yl)-4-(trifluoromethoxy)benzenesulfonamide] | 10.4 µM
O=S(=O)(NC1CCCC1c1ccc(Cl)c(Cl)c1)c1ccc(OC(F)(F)F)cc1 (single isomer, unassigned) [Compound 43, N-(2-(3,4-dichlorophenyl)cyclopentyl)-4-(trifluoromethoxy)benzenesulfonamide] | 37.5 µM
COc1ccc(Cl)cc1N1CCC(NS(=O)(=O)c2ccc(OC(F)(F)F)cc2)C1 (stereo not shown) [Compound 2, N-(1-(5-chloro-2-methoxyphenyl)pyrrolidin-3-yl)-4-(trifluoromethoxy)benzene-sulfonamide] | 67.4 µM
O=S(=O)(NC1CCN(c2cccc(OC(F)(F)F)c2)C1)c1ccc(OC(F)(F)F)cc1 (stereo not shown) [Compound 6] | 59.3 µM
O=S(=O)(NC1CCCCC1Oc1ccc(F)cc1)c1ccc(OC(F)(F)F)cc1 (stereo not shown) [Compound 7, N-(2-(4-fluorophenoxy)cyclohexyl)-4-(trifluoromethoxy)benzene-sulfonamide] | 65.9 µM
CC1CC(NS(=O)(=O)c2ccc(OC(F)(F)F)cc2)CCC1(C)C (stereo not shown) [Compound 8, 4-(trifluoromethoxy)-N-(3,4,4-trimethylcyclohexyl)benzene-sulfonamide] | 73.3 µM
O=S(=O)(NC1CCOc2c(F)ccc(F)c21)c1ccc(OC(F)(F)F)cc1 (stereo not shown) [Compound 10, N-(5,8-difluorochroman-4-yl)-4-(trifluoromethoxy)benzene-sulfonamide] | 67.5 µM
O=S(=O)(NC1CCCc2cc(Cl)ccc21)c1ccc(OC(F)(F)F)cc1 (stereo not shown) [Compound 12, N-(6-chloro-1,2,3,4-tetrahydronaphthalen-1-yl)-4-(trifluoromethoxy)benzene-sulfonamide] | 49 µM
O=S(=O)(NC1CCCCCC1c1ccccc1)c1ccc(OC(F)(F)F)cc1 (stereo not shown) [Compound 13, N-(2-phenylcycloheptyl)-4-(trifluoromethoxy)benzene-sulfonamide] | 55.6 µM
O=S(=O)(NC1(c2cccc(Cl)c2)CCCC1)c1ccc(OC(F)(F)F)cc1 [Compound 14, N-(1-(3-chlorophenyl)cyclopentyl)-4-(trifluoromethoxy)benzene-sulfonamide] | 42.8 µM
COc1cccc(C2(NS(=O)(=O)c3ccc(OC(F)(F)F)cc3)CCCC2)c1 [Compound 15] | 49.2 µM
CCC(C(=O)N1CCC(NS(=O)(=O)c2ccc(OC(F)(F)F)cc2)CC1)c1ccccc1 (stereo not shown) [Compound 17, N-(1-(2-phenylbutanoyl)piperidin-4-yl)-4-(trifluoromethoxy)benzene-sulfonamide] | 58 µM
COC(=O)C#CC1(NS(=O)(=O)c2ccc(OC(F)(F)F)cc2)CCCC1 [Compound 19] | 43 µM
COC(=O)C12CC3(C)CC(C)(CC(NS(=O)(=O)c4ccc(OC(F)(F)F)cc4)(C3)C1)C2 [Compound 21] | 30 µM
CC(C)(C)OC(=O)N1CCCC1C1(NS(=O)(=O)c2ccc(OC(F)(F)F)cc2)CC1 (stereo not shown) [Compound 23] | 26 µM
CCC1CC1(NS(=O)(=O)c1ccc(OC(F)(F)F)cc1)c1cccc(C)c1 (stereo not shown) [Compound 28, N-(2-ethyl-1-(m-tolyl)cyclopropyl)-4-(trifluoromethoxy)benzene-sulfonamide] | 62 µM
COc1ccc(C2(NS(=O)(=O)c3ccc(OC(F)(F)F)cc3)CCOCC2)cc1F [Compound 29, N-(4-(3-fluoro-4-methoxyphenyl)tetrahydro-2H-pyran-4-yl)-4-(trifluoromethoxy)benzene-sulfonamide] | 39 µM
CCOc1cc(CN2CCC(NS(=O)(=O)c3ccc(OC(F)(F)F)cc3)CC2)ccc1O [Compound 30, N-(1-(3-ethoxy-4-hydroxybenzyl)piperidin-4-yl)-4-(trifluoromethoxy)benzene-sulfonamide] | 30 µM
CC(C)(C)OC(=O)N1CCC(CF)(NS(=O)(=O)c2ccc(OC(F)(F)F)cc2)C1 (stereo not shown) [Compound 32] | 30 µM
O=S(=O)(NC1(c2ccccc2)CCN(Cc2ccccc2)C1)c1ccc(OC(F)(F)F)cc1 (stereo not shown) [Compound 35, N-(1-benzyl-3-phenylpyrrolidin-3-yl)-4-(trifluoromethoxy)benzene-sulfonamide] | 38.7 µM
O=S(=O)(NC1(c2ccccc2)CCNC1)c1ccc(OC(F)(F)F)cc1 (stereo not shown) [Compound 36, N-(3-phenylpyrrolidin-3-yl)-4-(trifluoromethoxy)benzene-sulfonamide] | 41.9 µM
O=S(=O)(NC1(c2ccc(Cl)cc2)CCNC1)c1ccc(OC(F)(F)F)cc1 (stereo not shown) [Compound 39, N-(3-(4-chlorophenyl)pyrrolidin-3-yl)-4-(trifluoromethoxy)benzene-sulfonamide] | 14 µM
O=C(OCc1ccccc1)N1CCC(NS(=O)(=O)c2ccc(OC(F)(F)F)cc2)(c2ccc(Cl)c(Cl)c2)C1 (stereo not shown) [Compound 40] | 25.5 µM
O=S(=O)(NC1(c2ccc(Cl)cc2)CCNCC1)c1ccc(OC(F)(F)F)cc1 [Compound 45, N-(4-(4-chlorophenyl)piperidin-4-yl)-4-(trifluoromethoxy)benzenesulfonamide] | 11 µM

Same assay, conditions: LNCaP cell line, 48 hours treatment

GI50 | SMILES
45.4 µM | O=S(=O)(NC1CCCC1c1ccc(Cl)c(Cl)c1)c1ccc(OC(F)(F)F)cc1 (single isomer, unassigned) [Compound 44, N-(2-(3,4-dichlorophenyl)cyclopentyl)-4-(trifluoromethoxy)benzenesulfonamide]
